The term IC50 denotes the midpoint of a concentration-inhibition curve.

Experimental findings from patent US10723711B2, “1,1,1-trifluoro-3-hydroxypropan-2-yl carbamate derivatives and 1,1,1-trifluoro-4-hydroxybutan-2-yl carbamate derivatives as MAGL inhibitors” (PFIZER INC., priority 2015, dated 2020) are described below.

Like-named read-outs stand apart in the source and are kept apart here. Some results are limits rather than exact numbers.

Holding throughout (format): biochemical
Assay [1] deals with T1, human recombinant Monoacylglycerol Lipase (Homo sapiens, UniProt Q99685).
T1 sequence (Q99685 1-303): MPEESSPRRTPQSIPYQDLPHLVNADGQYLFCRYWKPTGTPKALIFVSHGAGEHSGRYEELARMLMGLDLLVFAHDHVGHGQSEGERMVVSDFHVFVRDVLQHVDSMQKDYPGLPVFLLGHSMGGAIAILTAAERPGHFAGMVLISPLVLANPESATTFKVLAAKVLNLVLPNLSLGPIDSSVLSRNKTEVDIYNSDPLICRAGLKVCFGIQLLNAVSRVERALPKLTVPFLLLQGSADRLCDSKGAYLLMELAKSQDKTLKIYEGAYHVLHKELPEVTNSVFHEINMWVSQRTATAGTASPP
Nature of the assay: MAGL inactivation, enzyme progress curves, kinact/KI. The following applies: from enzyme progress curves, T = 0 min protocol; geometric mean of 2-4 determinations unless otherwise indicated. As to the method: Assessment of MAGL inhibition utilizes human recombinant Monoacylglycerol Lipase and the fluorogenic substrate 7-hydroxycoumarinyl arachidonate (7-HCA, Biomol ST-502). 400 nL of a test compound at decreasing concentration (ranging from 150 μM down to 1.5 nM) was spotted into a 384-well back plate (PerkinElmer, 6007279) using a Labcyte Echo, followed by addition of 10 μL of MAGL enzyme in assay buffer (50 mM HEPES, pH 7.4, 100 mM NaCl, 5 mM MgCl2, 0.1% Triton X-100 and 25% glycerin). An equal volume of 7-HCA in assay buffer with 10% DMSO was added either immediately (T=0 min) or after a 30 minute incubation (T=30 min) to initiate the reaction. The final concentration of MAGL enzyme was […] and 7-HCA substrate was 5 μM. After these dilutions, the final concentration of the test compound ranged from 3 μM to 0.03 nM. The reaction was allowed to progress for 60 minutes, after which the plate was read at an Ex/Em of 340/465. Percent inhibitions were calculated based on control wells containing no compound (0% inhibition) and a control compound (e.g., a MAGL inhibitor whose activity is known or was previously reported in the literature, such as one with about 100% inhibition). IC50 values were generated based on a four parameter fit model using ABASE software from IDBS. See e.g., Wang, Y. et al., “A Fluorescence-Based Assay for Monoacylglycerol Lipase Compatible with Inhibitor Screening,” Assay and Drug Development Technologies, 2008, Vol. 6 (3) pp 387-393 (reporting an assay for measuring MAGL activity).
To measure MAGL inactivation, the same protocol for the (T=0 min) MAGL inhibition IC50 assay was performed with data collected every minute to acquire enzyme progress curves at decreasing concentrations of compound.

For assay [2], the target named is T2, human recombinant FAAH (Homo sapiens, UniProt O00519).
T2 construct: purchased Cayman 10010183
T2 sequence (O00519 1-579): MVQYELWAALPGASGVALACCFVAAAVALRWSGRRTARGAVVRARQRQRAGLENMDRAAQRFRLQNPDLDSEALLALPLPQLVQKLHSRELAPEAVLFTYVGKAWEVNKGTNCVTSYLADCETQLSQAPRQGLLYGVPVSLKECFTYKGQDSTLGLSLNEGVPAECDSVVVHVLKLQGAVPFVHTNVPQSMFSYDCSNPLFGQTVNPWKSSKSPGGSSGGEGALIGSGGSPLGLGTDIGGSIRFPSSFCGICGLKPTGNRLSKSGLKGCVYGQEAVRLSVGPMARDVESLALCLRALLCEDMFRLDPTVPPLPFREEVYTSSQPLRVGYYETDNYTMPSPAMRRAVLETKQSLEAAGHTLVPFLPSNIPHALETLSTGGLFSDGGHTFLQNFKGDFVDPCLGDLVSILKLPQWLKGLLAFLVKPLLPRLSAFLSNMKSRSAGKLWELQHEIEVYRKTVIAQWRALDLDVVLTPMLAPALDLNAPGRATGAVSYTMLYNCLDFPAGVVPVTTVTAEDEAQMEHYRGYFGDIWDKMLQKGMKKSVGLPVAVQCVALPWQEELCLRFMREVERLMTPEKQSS
Nature of the assay: FAAH inhibition enzymatic assay, fluorescent substrate Arachidonoyl-AMC, 30 minute incubation. The following applies: T = 30 min (30 minute incubation); geometric mean of 2-4 determinations unless otherwise indicated. How it is done:
Assessment of FAAH inhibition utilizes human recombinant FAAH and the fluorescent substrate, Arachidonoyl-AMC. 400 nL of a test compound at decreasing concentrations was spotted into a 384-well back plate (PerkinElmer, 6007279) using a Labcyte Echo, followed by addition of 10 μl of FAAH enzyme (Cayman 10010183) in assay buffer (50 mM Tris, pH 9.0, 1 mM EDTA). After a 30 minute incubation at room temperature, 10 μL of Arachidonyl-AMCA was added in assay buffer with 16% DMSO. Final concentration of FAAH enzyme was 0.0125 Units and AAMCA substrate was used at the Km of 5 μM. […] The reaction was allowed to progress for 60 minutes, after which the plate was read on a Molecular Devices FlexStation reader at an Ex/Em of 355/460. Percent inhibitions were calculated based on controls wells containing either no compound (0% inhibition) or a control compound (e.g., an FAAH inhibitor whose activity is known or was previously reported in the literature, such as one with about 100% inhibition). IC50 values were generated based on a four parameter fit model using ABASE software from IDBS.

For assay [3], the target named is T1, human recombinant Monoacylglycerol Lipase. Nature of the assay: MAGL inhibition enzymatic assay, fluorogenic substrate 7-HCA, IC50 at T=0 min or after 30 minute incubation (T=30 min). As to conditions: geometric mean of 2-4 determinations unless otherwise indicated. How it is done:
An equal volume of 7-HCA in assay buffer with 10% DMSO was added either immediately (T=0 min) or after a 30 minute incubation (T=30 min) to initiate the reaction. […] After these dilutions, the final concentration of the test compound ranged from 3 μM to 0.03 nM. […] IC50 values were generated based on a four parameter fit model using ABASE software from IDBS.

[4] abbreviates: T = 0 min (substrate added immediately), read-out: MAGL (T = 0 min) IC50.
Setting [5] is: T = 30 min (30 minute incubation), read-out: MAGL (T = 30 min) IC50.

As to `O=C(O[C@H](CO)C(F)(F)F)N1CCC2(CC1)CCN(C(=O)c1ccccc1F)C2` [Example 98, (2R)-1,1,1-Trifluoro-3-hydroxypropan-2-yl 2-(2-fluorobenzoyl)-2,8-diazaspiro[4.5]decane-8-carboxylate], the “MAGL kinact/KI” value in assay [1] is given as 4933 1/s per M. The IC50 in assay [2] was above 30 µM; in assay [3] (setting [4]), 71 nM; in assay [3] (setting [5]), 7 nM.

Regarding `CC(c1ccc(F)cc1)N1CCOC2(CCN(C(=O)O[C@H](CO)C(F)(F)F)CC2)C1` (single isomer, unassigned) [Example 44], the “MAGL kinact/KI” value in assay [1] was 3701 1/s per M. Moreover, the values for the IC50 in assay [2], in assay [3] (setting [4]) and in assay [3] (setting [5]) were above 30 µM, 179 nM and 17 nM, respectively.

With `O=C(O[C@H](CO)C(F)(F)F)N1CCC2(CC1)CCN(C(=O)N1CCCC1)C2` [Example 133], in assay [1], the “MAGL kinact/KI” value is on record as 3614 1/s per M. Besides, the 50% inhibitory concentration (IC50) turned out to be 4.75 µM in assay [2], 174 nM in assay [3] (setting [4]) and 20 nM in assay [3] (setting [5]).

Turning to `CN(C1COC2(CCN(C(=O)O[C@H](CO)C(F)(F)F)CC2)C1)S(=O)(=O)c1cccnc1` (mixture of isomers) [Example 114], the “MAGL kinact/KI” value in assay [1] is 6263 1/s per M. Moreover, the IC50 was above 30 µM in assay [2], 163 nM in assay [3] (setting [4]) and 15 nM in assay [3] (setting [5]).

As for `O=C(O[C@H](CO)C(F)(F)F)N1CCC2(CC1)CN(S(=O)(=O)c1cccc(Cl)c1)CCO2` [Example 83], the “MAGL kinact/KI” value in assay [1] is reported as 21997^d 1/s per M. The IC50 in assay [2] was above 30 µM; in assay [3] (setting [4]), 19 nM; in assay [3] (setting [5]) it was 2 nM.

As to `O=C(O[C@H](CO)C(F)(F)F)N1C[C@@H]2[C@H](C1)[C@H]2c1ccn(-c2ccc(F)cc2)n1` [Example 3, (2R)-1,1,1-Trifluoro-3-hydroxypropan-2-yl (1α,5α,6α)-6-[1-(4-fluorophenyl)-1H-pyrazol-3-yl]-3-azabicyclo[3.1.0]hexane-3-carboxylate], the “MAGL kinact/KI” value in assay [1] is recorded as 20005 1/s per M. Further, the values for the IC50 in assay [2], in assay [3] (setting [4]) and in assay [3] (setting [5]) were 2.48 µM, 35 nM and 3 nM, respectively.

With `O=C(O[C@H](CO)C(F)(F)F)N1CCC2(CC1)CCN(C(=O)C1CCC(F)(F)CC1)C2` [Example 127], the “MAGL kinact/KI” value in assay [1] is 2067 1/s per M. Moreover, the IC50 is above 30 µM in assay [2], 163 nM in assay [3] (setting [4]) and 17 nM in assay [3] (setting [5]).

With `CCN([C@H]1COC2(CCN(C(=O)O[C@H](CO)C(F)(F)F)CC2)C1)S(=O)(=O)c1ccccc1` [Example 92, (2R)-1,1,1-Trifluoro-3-hydroxypropan-2-yl (3R)-3-[ethyl(phenylsulfonyl)amino]-1-oxa-8-azaspiro[4.5]decane-8-carboxylate], in assay [1], the “MAGL kinact/KI” value is 215500 1/s per M. Also, the IC50 in assay [2] is above 30 µM; in assay [3] (setting [4]), 6 nM; in assay [3] (setting [5]), 1 nM.

For `CN(C1COC2(CCN(C(=O)O[C@H](CO)C(F)(F)F)CC2)C1)S(=O)(=O)c1cccc(F)c1` (single isomer, unassigned) [Example 108], the “MAGL kinact/KI” value in assay [1] is given as 15960 1/s per M. Also, the IC50 was 10.7 µM in assay [2], 51 nM in assay [3] (setting [4]) and 3 nM in assay [3] (setting [5]).

Turning to `O=C(OC(C(F)(F)F)C(F)(F)CO)N1CCC2(CC1)CN(S(=O)(=O)c1ccc(F)cc1)CCO2` (single isomer, unassigned; ent-1) [Example 20, 1,1,1,3,3-Pentafluoro-4-hydroxybutan-2-yl 4-[(4-fluorophenyl)sulfonyl]-1-oxa-4,9-diazaspiro[5.5]undecane-9-carboxylate, ENT-1], the “MAGL kinact/KI” value in assay [1] is recorded as 4611 1/s per M. Besides, the 50% inhibitory concentration (IC50) in assay [2] was above 30 µM; in assay [3] (setting [4]), 61 nM; in assay [3] (setting [5]), 6 nM.

As for `O=C(O[C@H](CO)C(F)(F)F)N1CCC2(CC1)CC(c1cccc(OC(F)(F)F)c1)CO2` (mixture of isomers) [Example 118], in assay [1], the “MAGL kinact/KI” value is 172844 1/s per M. Moreover, the IC50 is above 24.8 µM in assay [2], 2 nM in assay [3] (setting [4]) and 0.4 nM in assay [3] (setting [5]).

For the molecule `CC(C)c1cccc(S(=O)(=O)N2CCOC3(CCN(C(=O)O[C@H](CO)C(F)(F)F)CC3)C2)c1` [Example 66], in assay [1], the “MAGL kinact/KI” value was 430364 1/s per M. Moreover, the half-inhibitory concentration (IC50) in assay [2] worked out at 7.87 µM; in assay [3] (setting [4]), 3 nM; in assay [3] (setting [5]) it was 0.2 nM.

Take `O=C(O[C@H](CO)C(F)(F)F)N1CCC2(CC1)CCN(C(=O)C1CCCC1)C2` [Example 124]: in assay [1], the “MAGL kinact/KI” value is recorded as 6720 1/s per M. The IC50 in assay [2] was above 30 µM; in assay [3] (setting [4]), 92 nM; in assay [3] (setting [5]), 10 nM.

`O=C(O[C@H](CO)C(F)(F)F)N1CCC2(CC1)CC(c1ccccc1)CO2` (single isomer, unassigned) [Example 95]: the “MAGL kinact/KI” value in assay [1] is on record as 131495 1/s per M. For the same molecule, the IC50 in assay [2] was found to be 8.72 µM; in assay [3] (setting [4]) it was 16 nM; in assay [3] (setting [5]), 1 nM.

In the case of `CN(CC1CCN(C(=O)O[C@H](CO)C(F)(F)F)CC1)S(=O)(=O)c1ccc(F)cc1` [Example 62], in assay [1], the “MAGL kinact/KI” value was 216 1/s per M. Also, the IC50 was above 30 µM in assay [2], 67 nM in assay [3] (setting [4]) and 7 nM in assay [3] (setting [5]).

For `CN([C@H]1COC2(CCN(C(=O)O[C@H](CO)C(F)(F)F)CC2)C1)S(=O)(=O)CC1CCC1` [Example 140], in assay [1], the “MAGL kinact/KI” value is 4595 1/s per M. The IC50 in assay [2] is above 30 µM; in assay [3] (setting [4]), 94 nM; in assay [3] (setting [5]) it was 9 nM.

Regarding `CN([C@H]1COC2(CCN(C(=O)O[C@H](CO)C(F)(F)F)CC2)C1)S(=O)(=O)CC1CC1` [Example 106, (2R)-1,1,1-Trifluoro-3-hydroxypropan-2-yl (3R)-3-{[(cyclopropylmethyl)sulfonyl](methyl)amino}-1-oxa-8-azaspiro[4.5]decane-8-carboxylate], the “MAGL kinact/KI” value in assay [1] is 2856 1/s per M. Also, the results for the IC50 in assay [2], in assay [3] (setting [4]) and in assay [3] (setting [5]) were above 30 µM, 238 nM and 20 nM, respectively.
